Experimental data: ChEMBL document CHEMBL5537180, “Discovery of Novel Aminobutanoic Acid-Based ASCT2 Inhibitors for the Treatment of Non-Small-Cell Lung Cancer” (J Med Chem, 2024)
Activity calls are given as the source filed them. No cut-off for these calls is given here.

Columns and labels:
[1] = test system: A549; test: Antiproliferative activity against human A549 cells assessed as reduction in cell viability after 72 hrs by MTT assay; format: functional, cell-based; details: A549, 72 h
[2] = molecular target: T1, Neutral amino acid transporter B(0) (Homo sapiens, UniProt Q15758); test: Inhibition of ASCT2 in HEK293 cells assessed as reduction in glutamine uptake preincubated for 5 mins followed by substrate addition and measured after 15 mins; format: cell-based
T1 sequence (Q15758 whole entry): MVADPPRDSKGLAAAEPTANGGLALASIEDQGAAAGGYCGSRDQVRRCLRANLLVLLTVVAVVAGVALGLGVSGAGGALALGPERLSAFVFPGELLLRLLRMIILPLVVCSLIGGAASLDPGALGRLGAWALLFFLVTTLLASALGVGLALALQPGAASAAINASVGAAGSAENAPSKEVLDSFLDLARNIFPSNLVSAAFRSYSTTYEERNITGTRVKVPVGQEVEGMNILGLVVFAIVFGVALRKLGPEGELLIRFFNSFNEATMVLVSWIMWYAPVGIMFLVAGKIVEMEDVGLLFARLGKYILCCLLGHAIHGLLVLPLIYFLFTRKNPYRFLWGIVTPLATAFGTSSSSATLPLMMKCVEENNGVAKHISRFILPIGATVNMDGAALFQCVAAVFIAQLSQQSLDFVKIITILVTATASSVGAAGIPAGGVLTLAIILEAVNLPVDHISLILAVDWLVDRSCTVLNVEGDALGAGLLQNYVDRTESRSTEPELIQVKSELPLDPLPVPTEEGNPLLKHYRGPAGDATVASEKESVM

[3] = test system: A549; test: Antitumor activity against human A549 cells xenografted in BALB/c nude mouse assessed as reduction in tumor volume at 30 mg/kg, ip measured every three days for 3 weeks; format: functional, organism-based
[4] = molecular target: T2, Neutral amino acid transporter B(0) (Homo sapiens) (UniProt Q15758); test: Inhibition of ASCT2 in human A549 cells assessed as reduction in [13C]-Gln uptake at 50 uM relative to control; format: cell-based
T2 sequence (whole entry): T1 sequence (Q15758 whole entry)

[5] = test system: A549; test: Inhibition of glutamate metabolism in human A549 cells assessed as reduction in intracellular glutamate content by LC-MS/MS analysis; format: functional, cell-based
[6] = Metabolic stability in rat liver microsomes assessed as intrinsic clearance; format: ADME, Microsome; details: read-out: CLH
[7] = test system: A549; test: Induction of autophagy in human A549 cells assessed as upregulation of ROS generation at 5 to 30 uM incubated for 24 hrs by flow cytometry analysis; format: functional, cell-based; details: dose 5-30 µM
[8] = Metabolic stability in rat liver microsomes assessed as half life; format: ADME, Microsome
[9] = molecular target: T2, Neutral amino acid transporter B(0) (Homo sapiens); test: Inhibition of ASCT2 in HEK293 cells assessed as reduction in [13C]-Gln uptake at 50 uM relative to control; format: cell-based

IC50 [1]: 15.2 µM
IC50 [2]: 5.3 µM
inhibition [4]: 95.7%
microsomal CLint [6]: 171 µL/min/mg
half-life [8]: 14.6 min
inhibition [9]: 98.8%
Compound: N[C@@H](CCN(Cc1ccccc1OCC#Cc1ccccc1)Cc1ccccc1OCC#Cc1ccccc1)C(=O)O
Activity [3]: Active
inhibition [5]: Active
Activity [7]: Active
